From ChEMBL document CHEMBL3217731 (Medchemcomm, 2012)

What was measured:
Parameters in all cases: dose 2.5 mg/kg, route intraperitoneal
[1] = tested on: Serum; test: Drug uptake in C57BL/6J mouse serum at 2.5 mg/kg, ip measured at 10 to 60 mins by CE-UV analysis; type: ADME, organism-based; settings: in vivo
[2] = tested on: Brain; test: Drug uptake in C57BL/6J mouse brain at 2.5 mg/kg, ip measured at 4 hrs by CE-UV analysis; type: ADME, organism-based; settings: in vivo
[3] = Drug uptake in C57BL/6J mouse eye at 2.5 mg/kg, ip measured at 10 hrs by CE-UV analysis; type: ADME, organism-based; settings: in vivo
[4] = tested on: Serum; test: Half life in C57BL/6J mouse serum at 2.5 mg/kg, ip; type: ADME, organism-based; settings: in vivo
[5] = Drug uptake in C57BL/6J mouse CSF at 2.5 mg/kg, ip measured at 4 to 10 hrs by CE-UV analysis; type: ADME, organism-based, Cerebrospinal fluid; settings: in vivo
[6] = tested on: Serum; test: AUC in C57BL/6J mouse serum at 2.5 mg/kg, ip by CE-UV analysis; type: ADME, organism-based, Plasma; settings: in vivo
[7] = AUC in C57BL/6J mouse CSF at 2.5 mg/kg, ip by CE-UV analysis; type: ADME, organism-based

For CN1C(=O)N[C@H]2[C@@H]3NC(=O)c4ccc(Br)n4[C@@H]3C[C@]21O [AGELASTATIN A], the Drug uptake [1] was “Active”, the Drug uptake [2] was “Active” and the Drug uptake [3] was “Active”. The t1/2 [4] was 12 h, the Drug uptake [5] was “Active” and the AUC [6] was 33.8 µM·h. For the same compound, the AUC [7] was 3.41 µM·h.
